Assay results as given in paper PMC12473123, “Structure–Function Insights into Quinuclidine-3-One BisQACs: Synthesis, Modulation of Bacterial Resistance, Structure–Activity Relationship, and Biological Profiling” (Pharmaceuticals, 2025).

Columns and labels:
[1] = tested on: Pseudomonas aeruginosa ATCC 27853; test: Broth microdilution MIC; assay type: cell-based; conditions: Pseudomonas aeruginosa, ATCC27853, read-out: Minimum Inhibitory Concentrations (MIC)
[2] = tested on: Salmonella enterica (food isolate); test: Broth microdilution MIC; assay type: cell-based; conditions: read-out: Minimum Inhibitory Concentrations (MIC)
[3] = tested on: Staphylococcus aureus ATCC 25923; test: Broth microdilution MIC; assay type: cell-based; conditions: for MIC: Staphylococcus aureus, ATCC25923, read-out: Minimum Inhibitory Concentrations (MIC)
[4] = tested on: Staphylococcus aureus Clinical/MRSA; test: Broth microdilution MIC; assay type: cell-based; conditions: for MIC: Staphylococcus aureus, MRSA, read-out: Minimum Inhibitory Concentrations (MIC)
[5] = tested on: Listeria monocytogenes ATCC 7644; test: Broth microdilution MIC; assay type: cell-based; conditions: Listeria monocytogenes, ATCC7644, read-out: Minimum Inhibitory Concentrations (MIC), Listeria monocytogenes ATCC 7644
[6] = tested on: Staphylococcus aureus ATCC 33591 (methicillin-resistant); test: Broth microdilution MIC; assay type: cell-based; conditions: for MIC: Staphylococcus aureus, ATCC33591, read-out: Minimum Inhibitory Concentrations (MIC)
[7] = tested on: Bacillus cereus ATCC 14579; test: Broth microdilution MIC; assay type: cell-based; conditions: ATCC14579, read-out: Minimum Inhibitory Concentrations (MIC), Bacillus cereus ATCC 14579
[8] = tested on: Escherichia coli ATCC 25922; test: Broth microdilution MIC; assay type: cell-based; conditions: for MIC: Escherichia coli, ATCC25922, read-out: Minimum Inhibitory Concentrations (MIC)
[9] = tested on: Enterococcus faecalis ATCC 29212; test: Broth microdilution MIC; assay type: cell-based; conditions: for MIC: Enterococcus faecalis, ATCC29212, read-out: Minimum Inhibitory Concentrations (MIC), Enterococcus faecalis ATCC 29212
[10] = tested on: Staphylococcus aureus ATCC 25923; test: Biofilm inhibition assay (crystal violet); assay type: cell-based
Method: (§1) The ability of the candidate compounds to inhibit biofilm formation was evaluated by determining the minimum biofilm inhibitory concentration (MBIC) against the biofilm-forming strains Staphylococcus aureus ATCC 25923 and Listeria monocytogenes ATCC 7644. Overnight bacterial cultures were diluted in fresh, pre-warmed Mueller–Hinton broth (MHB) and incubated at 37 °C with constant shaking at 220 rpm. Once the cultures reached the exponential growth phase (OD600 = 0.3–0.5), they were standardized to a final concentration of 4 × 10^6 CFU/mL.
(§2) Plates were incubated at 37 °C for 24 to 48 h, depending on the bacterial strain. After incubation, the planktonic cells were carefully aspirated to preserve the integrity of the biofilm layer. Wells were gently rinsed with sterile ultrapure Milli-Q water and air-dried at 60 °C for 1 h to fix the biofilms. Biofilm formation was quantified using a crystal violet (CV) staining method. Wells were stained with 100 µL of 0.1% CV solution and incubated at room temperature for 1 h. Excess dye was removed by rinsing with sterile ultrapure Milli-Q water, followed by air-drying. Bound CV was solubilized with 100 µL of 70% ethanol and incubated for 30 min. The solubilized dye was transferred to a fresh plate, and absorbance was measured at 595 nm using a microplate reader (Bio-Tek EL808, Winooski, VT, USA). Absorbance values were directly proportional to biofilm biomass. Untreated bacterial cultures served as positive controls for biofilm formation, while sterile MHB served as the negative control.

[11] = tested on: Listeria monocytogenes ATCC 7644; test: Biofilm inhibition assay (crystal violet); assay type: cell-based; conditions: L. monocytogenes
Method: as §1
as §2, with “Aliquots (50 µL) of the standardized bacterial suspension were inoculated into 96-well microtiter plates containing the test compounds at final concentrations of 100, 50, 25, and 12.5 µg/mL. Plates” for “Plates”

[12] = tested on: RPE1 cells; test: Cytotoxicity MTS assay; assay type: cell-based, human; conditions: RPE1 cells, 48 h, MTS; read-out: IC50 RPE1
Method: (§3) The cytotoxic potential of the selected drug candidates was evaluated using the CellTiter 96® AQueous One Solution Cell Proliferation Assay (Promega, Madison, WI, USA), following the manufacturer’s protocol. Human cell lines RPE1 and HEK293 were cultured at 37 °C in a humidified incubator with 5% CO2. Test compounds were dissolved in the appropriate growth medium and serially diluted across a range of concentrations in 96-well microtiter plates. Each well was seeded with 5000 cells and incubated for 48 h under standard culture conditions. Following this incubation period, 20 µL of MTS reagent was added to each well, and the plates were further incubated for 3 h to allow for color development. Absorbance was measured at 490 nm using a microplate reader to determine cell viability. Cytotoxicity was quantified as the half-maximal inhibitory concentration (IC50), defined as the concentration of compound that reduced cell viability by 50%. […] IC50 values were calculated using GraFit 6.0 software by plotting compound concentration against absorbance and fitting the data to a sigmoidal dose–response curve.

[13] = tested on: HEK293 cells; test: Cytotoxicity MTS assay; assay type: cell-based, human; conditions: HEK293 cells, 48 h, MTS; read-out: IC50 HEK293
Method: as §3

| SMILES | MIC [1] [µM] | MIC [2] [µM] | MIC [3] [µM] | MIC [4] [µM] | MIC [5] [µM] | MIC [6] [µM] | MIC [7] [µM] | MIC [8] [µM] | MIC [9] [µM] | further results |
| --- | --- | --- | --- | --- | --- | --- | --- | --- | --- | --- |
| CCCCCCCCCCCCNC1C[N+]2(CCC[N+]34CCC(CC3)C(NCCCCCCCCCCCC)C4)CCC1CC2 (racemic) [2(QC12)3, (±)-1,1′-(Propane-1,3-diyl) bis(3-(dodecylamino)quinuclidinium) dibromide] | > 75 | 75 | 75 | > 75 | 38 | 75 | > 75 | > 75 | > 75 | – |
| CCCCCCCCCCCCNC1C[N+]2(CCCC[N+]34CCC(CC3)C(NCCCCCCCCCCCC)C4)CCC1CC2 (racemic) [2(QC12)4, (±)-1,1′-(Butane-1,4-diyl) bis(3-(dodecylamino)quinuclidinium) dibromide] | > 75 | > 75 | > 75 | > 75 | 75 | 75 | > 75 | > 75 | > 75 | – |
| CCCCCCCCCCCCNC1C[N+]2(CCCCCC[N+]34CCC(CC3)C(NCCCCCCCCCCCC)C4)CCC1CC2 (racemic) [2(QC12)6, (±)-1,1′-(Hexane-1,6-diyl) bis(3-(dodecylamino)quinuclidinium) dibromide] | > 75 | > 75 | 75 | > 75 | 38 | 19 | > 75 | 38 | 75 | – |
| CCCCCCCCCCCCCCNC1C[N+]2(CCC[N+]34CCC(CC3)C(NCCCCCCCCCCCCCC)C4)CCC1CC2 (racemic) [2(QC14)3, (±)-1,1′-(Propane-1,3-diyl) bis(3-(tetradecylamino)quinuclidinium) dibromide] | > 75 | > 75 | 75 | > 75 | 38 | 75 | > 75 | > 75 | > 75 | – |
| CCCCCCCCCCCCCCNC1C[N+]2(CCCC[N+]34CCC(CC3)C(NCCCCCCCCCCCCCC)C4)CCC1CC2 (racemic) [2(QC14)4, (±)-1,1′-(Butane-1,4-diyl) bis(3-(tetradecylamino)quinuclidinium) dibromide] | > 75 | > 75 | > 75 | > 75 | > 75 | 75 | > 75 | > 75 | > 75 | – |
| O=C1C[N+]2(CCC[N+]34CCC(CC3)C(=O)C4)CCC1CC2 [2(QO)3, 1,1′-(Propane-1,3-diyl) bis(3-oxoquinuclidinium) dibromide] | > 75 | > 75 | > 75 | > 75 | > 75 | > 75 | > 75 | > 75 | > 75 | – |
| O=C1C[N+]2(CCCC[N+]34CCC(CC3)C(=O)C4)CCC1CC2 [2(QO)4, 1,1′-(Butane-1,4-diyl) bis(3-oxoquinuclidinium) dibromide] | > 75 | > 75 | > 75 | > 75 | > 75 | > 75 | > 75 | > 75 | > 75 | – |
| O=C1C[N+]2(CCCCCC[N+]34CCC(CC3)C(=O)C4)CCC1CC2 [2(QO)6, 1,1′-(Hexane-1,6-diyl) bis(3-oxoquinuclidinium) dibromide] | > 75 | > 75 | > 75 | > 75 | > 75 | > 75 | > 75 | > 75 | > 75 | – |
| CCCCCCCCCCCC[N+](C)(C)Cc1ccccc1.[Br-] [BAB, benzyldodecyldimethylammonium bromide, reference compound] | – | 50 | – | – | – | – | – | – | – | biofilm inhibition ([10]; S. aureus ATCC 25923, across all tested concentrations): > 74%; biofilm inhibition ([11]; 12.5 µg/mL): comparable values; biofilm inhibition ([11]; 25 µg/mL): 20%; biofilm inhibition ([11]; 50 µg/mL): remaining consistent; biofilm inhibition ([11]; 100 µg/mL): 44%; IC50 [12]: 820 nM; IC50 [13]: 3000 nM; Minimum Inhibitory Concentrations (MIC) ([3]; Staphylococcus aureus ATCC 25923): 10 µM; Minimum Inhibitory Concentrations (MIC) ([4]; Staphylococcus aureus Clinical/MRSA): 25 µM; Minimum Inhibitory Concentrations (MIC) ([6]; Staphylococcus aureus ATCC 33591): 25 µM; Minimum Inhibitory Concentrations (MIC) ([8]; Escherichia coli ATCC 25922): 63 µM; Minimum Inhibitory Concentrations (MIC) ([9]; Enterococcus faecalis ATCC 29212): 15 µM |
| CO/N=C(\C(=O)N[C@@H]1C(=O)N2C(C(=O)O)=C(COC(C)=O)CS[C@H]12)c1csc(N)n1 [CFX, cefotaxime, reference compound] | – | – | – | – | – | – | – | – | – | biofilm inhibition ([10]; S. aureus ATCC 25923, 50 µg/mL): 62%; biofilm inhibition ([11]; 12.5 µg/mL): similarly low values; inhibition at 25 µg/mL ([11]; Listeria monocytogenes, ATCC7644, 25 µg/mL, read-out: biofilm inhibition): 6%; inhibition at 50 µg/mL ([11]; Listeria monocytogenes, ATCC7644, 50 µg/mL, read-out: biofilm inhibition): > 20%; inhibition at 100 µg/mL ([11]; Listeria monocytogenes, ATCC7644, 100 µg/mL, read-out: biofilm inhibition): > 20% |
